Here are results for five compounds from US20260201008A1, “SECRETIN-DERIVED GLP1R SELECTIVE AGONISTS” (GUBRA A/S, priority 2023, published 2026).

What is called solubility is the dissolved amount per volume that the medium holds. High values mean much dissolved substance, low ones little dissolved substance.

Data set [1] in a line: Thioflavin T fibril formation assay of purified peptides. The note with it: 267 μM, phosphate buffer pH 7.0, 96 h at 40° C. It counts as physicochemical. Here is the method:
Thioflavin T fibril formation assay: Peptides are dissolved as 267 μM in 50 mM phosphate buffer pH 7.0 for 2 h at room temperature on a rocking table. The samples were then divided into three replicates of 80 μl/well and mixed with 2 μl/well Thioflavin T (ThT) to a final concentration of 4 μM ThT in a black 384 well microplate with a clear bottom (Greiner #781096). The plate is inserted in a CLARIOstar Plus microplate reader (BMG Labtech) and fibril formation is measured as an increase in fluorescence emission at 480 nm (excitation at 450 nm) during 96 h at 40° C. with cycles of 5 min rest and 5 min linear shaking at 700 rpm.

A short description of data set [2]: Solubility of purified peptides. The data set is classed as physicochemical. Particulars: 100 mM phosphate buffer, target pH 7.0, target approximately 10 mg/mL. Here is the method: Solubility was tested in the following vehicles: 100 mM phosphate buffer facilitating a target pH of 7.0. Samples were directly dissolved in Mini-UniPrep Syringeless Filter 0.45 μm unit (Whatman). For the desired concentration, such as a concentration of approximately 10 mg/mL, 1050 nmol of peptide was dissolved in 400 μL vehicle. Samples were incubated for at least 1 h at room temperature on a rocking table. The pH was measured and adjusted. Samples were left on the rocking table for an additional hour before a second pH measurement and adjustment. Visual inspection was performed and noted before the filter was pushed. The concentration of peptide in the filtrate was determined using CAD (Charged Aerosol Detection), double determination was done for each sample. The measured concentration was reported in μM. Furthermore, the pH of the filtrate was measured and reported. Peptides with a measured concentration within +/−20% of target concentration are considered fully soluble.

In a further data set the target is SCTR (Homo sapiens, UniProt P47872). As to the kind of experiment: hSCTR potency, cAMP accumulation in CHO-K1 cells stably overexpressing hSCTR. It counts as cell-based. Also noted: alternatively Euroscreen ES-712-AF; FAST-0161L; host or cells: CHO-K1. Put shortly: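 CHO-K1/hSCTR cells; DPBS + 0.05% casein + 0.5 mM IBMX; 30 min RT stimulation; cAMP by TR-FRET read at 1 h. Crude peptides: 5-point 10-fold dilutions, n=1. Purified: 11-point 3-fold dilutions, n=2. EC50 via variable-slope fit.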
(In general: cAMP levels reflect the balance of adenylyl cyclase and phosphodiesterase activity.)

Another data set has as its target GLP1R (Homo sapiens, UniProt P43220). As to the kind of experiment: hGLP1R potency, cAMP accumulation in CHO-K1 cells stably overexpressing hGLP1R. It counts as cell-based. Also noted: host or cells: CHO-K1. The note with it: for Selectivity: SCTR EC50/GLP1R EC50 ratio. In short, it runs like this: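 TR-FRET cAMP read-out, one hour after reagent addition, following 30 min compound exposure at RT in DPBS/0.05% casein/0.5 mM IBMX. Crude peptides: 5 points, 10-fold steps, n=1. Purified peptides: 11 points, 3-fold steps, n=2. EC50 fitted with a variable-slope sigmoid.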

The mark [3] stands for this setting: Table 2, extended 30 amino acid peptides, read-out: pEC50 hSCTR (converted).
Where [4] appears, read: Table 2, extended 30 amino acid peptides.
Where [5] appears, read: Table 2, extended 30 amino acid peptides, read-out: PEC50 hGLPR1 (converted).

≈ marks a conversion by molar mass, not a printed value. Read-outs that look alike come from different tables or passages of the source. Numbered stars: 1 amine (or outer) side, 2 acyl side, 3 side chain; on linkers, the order of the positions; unused ones are H or OH. Square brackets hold non-standard residues; d marks the D form. Side chains are listed from the residue outwards. Peptide text beside a SMILES is read from it. * marks the point of attachment. C20 diacid = O=C(O)CCCCCCCCCCCCCCCCCCC(=O)*; γGlu = O=C(O)[C@H](CCC(=O)[*:2])N[*:1]; AEEA = NCCOCCOCC(=O)O; Aib = CC(C)(N)C(=O)O

Chain of GLP1R (P43220 24-463): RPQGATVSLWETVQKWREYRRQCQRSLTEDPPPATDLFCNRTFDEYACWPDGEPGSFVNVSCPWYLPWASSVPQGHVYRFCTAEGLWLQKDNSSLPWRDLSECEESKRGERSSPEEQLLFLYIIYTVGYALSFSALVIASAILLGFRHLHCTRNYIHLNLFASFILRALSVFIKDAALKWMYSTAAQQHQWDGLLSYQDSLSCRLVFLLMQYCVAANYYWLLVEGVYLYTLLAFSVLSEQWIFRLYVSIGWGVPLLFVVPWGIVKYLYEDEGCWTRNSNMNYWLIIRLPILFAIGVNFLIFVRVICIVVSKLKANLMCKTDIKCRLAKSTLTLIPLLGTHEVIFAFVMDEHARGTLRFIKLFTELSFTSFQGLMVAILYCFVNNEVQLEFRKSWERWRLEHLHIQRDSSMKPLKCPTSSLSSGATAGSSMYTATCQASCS
Chain of SCTR (P47872 23-440): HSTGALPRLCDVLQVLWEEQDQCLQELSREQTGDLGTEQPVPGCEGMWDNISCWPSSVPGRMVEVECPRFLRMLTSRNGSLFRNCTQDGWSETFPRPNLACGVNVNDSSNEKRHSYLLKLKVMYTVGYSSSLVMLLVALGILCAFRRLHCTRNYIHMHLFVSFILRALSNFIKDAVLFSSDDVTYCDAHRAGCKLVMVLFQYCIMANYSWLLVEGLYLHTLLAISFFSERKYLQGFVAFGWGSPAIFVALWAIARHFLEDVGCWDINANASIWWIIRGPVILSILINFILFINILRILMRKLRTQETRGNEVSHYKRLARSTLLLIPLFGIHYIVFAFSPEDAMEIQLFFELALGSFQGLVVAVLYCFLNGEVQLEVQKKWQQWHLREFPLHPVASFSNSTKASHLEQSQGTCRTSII

`CC(C)C[C@H](NC(=O)[C@H](Cc1ccccc1)NC(=O)[C@H](CCCNC(=N)N)NC(=O)[C@H](CCC(N)=O)NC(=O)[C@H](CC(C)C)NC(=O)C(C)(C)NC(=O)[C@H](C)NC(=O)[C@H](CCC(=O)O)NC(=O)[C@H](CCC(=O)O)NC(=O)[C@H](CCCCNC(=O)COCCOCCNC(=O)COCCOCCNC(=O)CC[C@H](NC(=O)CCCCCCCCCCCCCCCCCCC(=O)O)C(=O)O)NC(=O)[C@H](CC(C)C)NC(=O)[C@H](CCCNC(=N)N)NC(=O)[C@H](CO)NC(=O)[C@@H](NC(=O)[C@H](CC(=O)O)NC(=O)[C@H](CO)NC(=O)[C@@H](NC(=O)[C@H](Cc1ccccc1)NC(=O)[C@@H](NC(=O)CNC(=O)[C@H](CCC(=O)O)NC(=O)C(C)(C)NC(=O)[C@@H](N)Cc1c[nH]cn1)[C@@H](C)O)[C@@H](C)O)C(C)C)C(=O)N[C@@H](CCC(=O)O)C(=O)N[C@@H](Cc1c[nH]cn1)C(=O)N[C@@H](CC(C)C)C(=O)N[C@H](C(=O)N[C@@H](CCC(=O)O)C(=O)N[C@@H](C)C(=O)N[C@@H](C)C(N)=O)C(C)C` [compound 208] (H-H[Aib]EGTFTSDVSRLK([AEEA-AEEA-γGlu-C20 diacid])EEA[Aib]LQRFLEHLVEAA-NH2): in data set [1], the Fibril formation entry is on record as “No”. In addition, in data set [2], the solubility came to 9200 µg/mL (≈ 2230 µM).
Consider `CC(C)C[C@H](NC(=O)[C@H](Cc1ccccc1)NC(=O)[C@H](CCCNC(=N)N)NC(=O)[C@H](CCC(N)=O)NC(=O)[C@H](CC(C)C)NC(=O)C(C)(C)NC(=O)[C@H](C)NC(=O)[C@H](CCC(=O)O)NC(=O)[C@H](CCC(=O)O)NC(=O)[C@H](CCCCNC(=O)COCCOCCNC(=O)COCCOCCNC(=O)CC[C@H](NC(=O)CCCCCCCCCCCCCCCCCCC(=O)O)C(=O)O)NC(=O)[C@H](CC(C)C)NC(=O)[C@H](Cc1ccc(O)cc1)NC(=O)[C@H](CO)NC(=O)[C@@H](NC(=O)[C@H](CC(=O)O)NC(=O)[C@H](CO)NC(=O)[C@@H](NC(=O)[C@H](Cc1ccccc1)NC(=O)[C@@H](NC(=O)CNC(=O)[C@H](CCC(=O)O)NC(=O)C(C)(C)NC(=O)[C@@H](N)Cc1c[nH]cn1)[C@@H](C)O)[C@@H](C)O)C(C)C)C(=O)N[C@@H](CCC(=O)O)C(=O)N[C@@H](Cc1c[nH]cn1)C(=O)N[C@@H](CC(C)C)C(=O)N[C@H](C(N)=O)C(C)C` [compound 203] (H-H[Aib]EGTFTSDVSYLK([AEEA-AEEA-γGlu-C20 diacid])EEA[Aib]LQRFLEHLV-NH2), for which the EC50 at SCTR (cAMP accumulation, CHO-K1 cells stably overexpressing hSCTR, read-out: hSCTR potency (pEC50) (converted)) is 200 nM; at SCTR (purified peptides, read-out: hSCTR pEC50 (converted)) it was 200 nM; at GLP1R (cAMP accumulation, CHO-K1 cells stably overexpressing hGLP1R, read-out: hGLP1R potency (pEC50) (converted)), 0.02 nM. Moreover, the Fibril formation result in data set [1] is on record as “No”. In data set [2], this compound yielded a solubility of 9800 µg/mL (≈ 2540 µM). Also, at GLP1R (purified peptides), the Selectivity was determined as 11176. In addition, the “SCTR EC50/GLP1R EC50 ratio” value at GLP1R (selectivity ratio, hSCTR vs hGLP1R, cAMP accumulation in CHO-K1 cells) came to 10000.
`CC(C)C[C@H](NC(=O)[C@H](CC(C)C)NC(=O)[C@H](Cc1ccc(O)cc1)NC(=O)[C@H](CO)NC(=O)[C@@H](NC(=O)[C@H](CC(=O)O)NC(=O)[C@H](CO)NC(=O)[C@@H](NC(=O)[C@H](Cc1ccccc1)NC(=O)[C@@H](NC(=O)CNC(=O)[C@H](CCC(=O)O)NC(=O)C(C)(C)NC(=O)[C@@H](N)Cc1c[nH]cn1)[C@@H](C)O)[C@@H](C)O)C(C)C)C(=O)N[C@@H](CCC(=O)O)C(=O)N[C@@H](CCC(=O)O)C(=O)N[C@@H](C)C(=O)NC(C)(C)C(=O)N[C@@H](CC(C)C)C(=O)N[C@@H](CCC(N)=O)C(=O)N[C@@H](CCCNC(=N)N)C(=O)N[C@@H](Cc1ccccc1)C(=O)N[C@@H](CC(C)C)C(=O)N[C@@H](CCC(=O)O)C(=O)N[C@@H](CCCCNC(=O)COCCOCCNC(=O)COCCOCCNC(=O)CC[C@H](NC(=O)CCCCCCCCCCCCCCCCCCC(=O)O)C(=O)O)C(=O)N[C@@H](CC(C)C)C(=O)N[C@H](C(=O)N[C@@H](CCC(=O)O)C(=O)N[C@@H](C)C(=O)N[C@@H](C)C(N)=O)C(C)C` [compound 213] (H-H[Aib]EGTFTSDVSYLLEEA[Aib]LQRFLEK([AEEA-AEEA-γGlu-C20 diacid])LVEAA-NH2): the EC50 at SCTR (setting [3]) is 1000 nM; at GLP1R (setting [5]), 0.0158 nM. The Fibril formation result in data set [1] is on record as “No”. In data set [2], this compound showed a solubility of 8200 µg/mL (≈ 2000 µM). Besides, the Selectivity on GLP1R (setting [4]) is 54706; at GLP1R (purified peptides), 63571.
For the compound `CC(C)C[C@H](NC(=O)[C@H](Cc1ccccc1)NC(=O)[C@H](CCCNC(=N)N)NC(=O)[C@H](CCC(N)=O)NC(=O)[C@H](CC(C)C)NC(=O)C(C)(C)NC(=O)[C@H](C)NC(=O)[C@H](CCC(=O)O)NC(=O)[C@H](CCC(=O)O)NC(=O)[C@H](CCCCNC(=O)COCCOCCNC(=O)COCCOCCNC(=O)CC[C@H](NC(=O)CCCCCCCCCCCCCCCCCCC(=O)O)C(=O)O)NC(=O)[C@H](CC(C)C)NC(=O)[C@H](Cc1ccc(O)cc1)NC(=O)[C@H](CO)NC(=O)[C@@H](NC(=O)[C@H](CC(=O)O)NC(=O)[C@H](CO)NC(=O)[C@@H](NC(=O)[C@H](Cc1ccccc1)NC(=O)[C@@H](NC(=O)CNC(=O)[C@H](CCC(=O)O)NC(=O)C(C)(C)NC(=O)[C@@H](N)Cc1c[nH]cn1)[C@@H](C)O)[C@@H](C)O)C(C)C)C(=O)N[C@@H](CCC(=O)O)C(=O)N[C@@H](Cc1c[nH]cn1)C(=O)N[C@@H](CC(C)C)C(=O)N[C@H](C(=O)N[C@@H](CCC(=O)O)C(=O)N[C@@H](C)C(=O)N[C@@H](C)C(N)=O)C(C)C` [compound 209] (H-H[Aib]EGTFTSDVSYLK([AEEA-AEEA-γGlu-C20 diacid])EEA[Aib]LQRFLEHLVEAA-NH2), the EC50 on SCTR (setting [3]) is 398 nM; on GLP1R (setting [5]), 0.0126 nM. Further, the Fibril formation entry in data set [1] is on record as “No”. In addition, in data set [2], the solubility turned out to be 11000 µg/mL (≈ 2660 µM). For the same compound, the Selectivity came to 34167 at GLP1R (setting [4]) and 33673 on GLP1R (purified peptides).
Turning to `CC(C)C[C@H](NC(=O)[C@H](Cc1ccccc1)NC(=O)[C@H](CCCNC(=N)N)NC(=O)[C@H](CCC(N)=O)NC(=O)[C@H](CC(C)C)NC(=O)C(C)(C)NC(=O)[C@H](C)NC(=O)[C@H](CCC(=O)O)NC(=O)[C@H](CCC(=O)O)NC(=O)[C@H](CCCCNC(=O)COCCOCCNC(=O)COCCOCCNC(=O)CC[C@H](NC(=O)CCCCCCCCCCCCCCCCCCC(=O)O)C(=O)O)NC(=O)[C@H](CC(C)C)NC(=O)[C@H](CCC(=O)O)NC(=O)[C@H](CO)NC(=O)[C@@H](NC(=O)[C@H](CC(=O)O)NC(=O)[C@H](CO)NC(=O)[C@@H](NC(=O)[C@H](Cc1ccccc1)NC(=O)[C@@H](NC(=O)CNC(=O)[C@H](CCC(=O)O)NC(=O)C(C)(C)NC(=O)[C@@H](N)Cc1c[nH]cn1)[C@@H](C)O)[C@@H](C)O)C(C)C)C(=O)N[C@@H](CCC(=O)O)C(=O)N[C@@H](Cc1c[nH]cn1)C(=O)N[C@@H](CC(C)C)C(=O)N[C@H](C(=O)N[C@@H](CCC(=O)O)C(=O)N[C@@H](C)C(=O)N[C@@H](C)C(N)=O)C(C)C` [compound 210] (H-H[Aib]EGTFTSDVSELK([AEEA-AEEA-γGlu-C20 diacid])EEA[Aib]LQRFLEHLVEAA-NH2), the Fibril formation result in data set [1] is “No”. Besides, the solubility in data set [2] was determined as 8300 µg/mL (≈ 2020 µM).
